Source: ChEMBL document CHEMBL5678818, “Discovery of potent SOS1 inhibitors that block RAS activation via disruption of the RAS-SOS1 interaction” (Proc Natl Acad Sci U S A, 2019)

Columns and labels:
[1] = target: T1, Ephrin type-B receptor 2 (Homo sapiens) (UniProt P29323); assay: Inhibition of EPHB2 (unknown origin) assessed as residual activity at 1000 nM by KINOMEscan analysis relative to control
T1 sequence (whole entry): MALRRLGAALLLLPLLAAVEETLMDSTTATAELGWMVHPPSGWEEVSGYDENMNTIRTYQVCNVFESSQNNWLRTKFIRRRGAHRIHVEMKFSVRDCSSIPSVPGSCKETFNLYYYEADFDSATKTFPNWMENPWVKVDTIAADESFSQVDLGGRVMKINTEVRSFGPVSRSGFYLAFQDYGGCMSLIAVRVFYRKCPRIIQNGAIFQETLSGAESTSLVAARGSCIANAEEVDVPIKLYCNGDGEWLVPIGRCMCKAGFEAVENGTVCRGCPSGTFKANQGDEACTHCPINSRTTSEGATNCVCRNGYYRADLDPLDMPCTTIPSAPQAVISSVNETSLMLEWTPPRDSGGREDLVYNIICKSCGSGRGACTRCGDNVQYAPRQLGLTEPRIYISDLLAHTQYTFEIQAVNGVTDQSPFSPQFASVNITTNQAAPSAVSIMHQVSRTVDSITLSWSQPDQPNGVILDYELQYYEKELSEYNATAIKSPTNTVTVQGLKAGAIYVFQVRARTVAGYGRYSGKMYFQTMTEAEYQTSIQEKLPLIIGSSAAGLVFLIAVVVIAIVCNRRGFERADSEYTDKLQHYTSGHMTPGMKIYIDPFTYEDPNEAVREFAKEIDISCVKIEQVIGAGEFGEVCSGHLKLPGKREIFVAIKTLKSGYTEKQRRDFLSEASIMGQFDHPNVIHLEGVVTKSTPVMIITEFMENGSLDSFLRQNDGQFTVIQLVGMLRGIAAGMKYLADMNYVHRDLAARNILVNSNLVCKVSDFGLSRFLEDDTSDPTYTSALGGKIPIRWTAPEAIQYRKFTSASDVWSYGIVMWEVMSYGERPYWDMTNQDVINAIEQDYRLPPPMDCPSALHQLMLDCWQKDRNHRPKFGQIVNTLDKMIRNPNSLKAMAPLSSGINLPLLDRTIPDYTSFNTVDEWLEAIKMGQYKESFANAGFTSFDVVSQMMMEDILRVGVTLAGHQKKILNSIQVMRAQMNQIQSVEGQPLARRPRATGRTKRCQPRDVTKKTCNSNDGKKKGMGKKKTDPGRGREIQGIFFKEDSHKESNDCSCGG

[2] = target: Mitogen-activated protein kinase 1 (Homo sapiens) (UniProt P28482); assay: Inhibition of ERK2 (unknown origin) assessed as residual activity at 1000 nM by KINOMEscan analysis relative to control
[3] = target: Glycogen synthase kinase-3 beta (Homo sapiens) (UniProt P49841); assay: Inhibition of GSK3B (unknown origin) assessed as residual activity at 1000 nM by KINOMEscan analysis relative to control
[4] = target: Insulin receptor (Homo sapiens) (UniProt P06213); assay: Inhibition of INSR (unknown origin) assessed as residual activity at 1000 nM by KINOMEscan analysis relative to control
[5] = target: T2, Interleukin-1 receptor-associated kinase 3 (Homo sapiens) (UniProt Q9Y616); assay: Inhibition of IRAK3 (unknown origin) assessed as residual activity at 1000 nM by KINOMEscan analysis relative to control
T2 sequence (whole entry): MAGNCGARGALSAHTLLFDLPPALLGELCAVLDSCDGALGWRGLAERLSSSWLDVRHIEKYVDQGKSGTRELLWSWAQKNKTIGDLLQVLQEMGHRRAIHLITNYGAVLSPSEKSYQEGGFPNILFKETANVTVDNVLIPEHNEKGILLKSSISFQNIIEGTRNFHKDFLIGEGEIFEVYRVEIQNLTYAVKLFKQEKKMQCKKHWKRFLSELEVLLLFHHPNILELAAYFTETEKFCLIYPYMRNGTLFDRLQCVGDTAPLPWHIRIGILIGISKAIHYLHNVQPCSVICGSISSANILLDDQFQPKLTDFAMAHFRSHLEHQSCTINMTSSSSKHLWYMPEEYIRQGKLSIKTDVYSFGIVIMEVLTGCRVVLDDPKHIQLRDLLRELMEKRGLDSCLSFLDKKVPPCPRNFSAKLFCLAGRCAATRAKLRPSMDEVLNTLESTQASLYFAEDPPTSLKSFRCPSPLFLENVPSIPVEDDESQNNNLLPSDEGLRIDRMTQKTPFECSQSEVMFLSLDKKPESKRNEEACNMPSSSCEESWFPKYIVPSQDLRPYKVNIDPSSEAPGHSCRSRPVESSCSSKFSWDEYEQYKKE

[6] = system: Phosphatidylinositol 4,5-bisphosphate 3-kinase catalytic subunit alpha isoform (Homo sapiens), P42336 [E545K]; assay: Inhibition of PIK3CA E545K mutant (unknown origin) assessed as residual activity at 1000 nM by KINOMEscan analysis relative to control
[7] = target: T3, Serine/threonine-protein kinase RIO3 (Homo sapiens) (UniProt O14730); assay: Inhibition of RIOK3 (unknown origin) assessed as residual activity at 1000 nM by KINOMEscan analysis relative to control
T3 sequence (whole entry): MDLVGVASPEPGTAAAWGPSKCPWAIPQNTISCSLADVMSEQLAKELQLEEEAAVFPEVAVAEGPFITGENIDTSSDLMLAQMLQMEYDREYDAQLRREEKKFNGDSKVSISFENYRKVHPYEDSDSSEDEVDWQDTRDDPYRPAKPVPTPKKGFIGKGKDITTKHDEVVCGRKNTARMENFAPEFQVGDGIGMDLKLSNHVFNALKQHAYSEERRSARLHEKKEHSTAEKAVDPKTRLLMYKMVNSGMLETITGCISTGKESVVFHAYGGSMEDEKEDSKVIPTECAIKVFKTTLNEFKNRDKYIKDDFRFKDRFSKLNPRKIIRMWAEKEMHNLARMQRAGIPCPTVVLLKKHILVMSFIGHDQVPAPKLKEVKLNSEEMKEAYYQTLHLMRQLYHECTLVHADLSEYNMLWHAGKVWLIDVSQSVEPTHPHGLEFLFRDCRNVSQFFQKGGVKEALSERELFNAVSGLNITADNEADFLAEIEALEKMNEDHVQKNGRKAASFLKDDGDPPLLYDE

[8] = target: Ribosomal protein S6 kinase alpha-1 (Homo sapiens) (UniProt Q15418); assay: Inhibition of N-terminal RSK1 kinetic domain 1 (unknown origin) assessed as residual activity at 1000 nM by KINOMEscan analysis relative to control
Ribosomal protein S6 kinase alpha-1 (Homo sapiens), sequence (Q15418 whole entry, the tested form may be a part): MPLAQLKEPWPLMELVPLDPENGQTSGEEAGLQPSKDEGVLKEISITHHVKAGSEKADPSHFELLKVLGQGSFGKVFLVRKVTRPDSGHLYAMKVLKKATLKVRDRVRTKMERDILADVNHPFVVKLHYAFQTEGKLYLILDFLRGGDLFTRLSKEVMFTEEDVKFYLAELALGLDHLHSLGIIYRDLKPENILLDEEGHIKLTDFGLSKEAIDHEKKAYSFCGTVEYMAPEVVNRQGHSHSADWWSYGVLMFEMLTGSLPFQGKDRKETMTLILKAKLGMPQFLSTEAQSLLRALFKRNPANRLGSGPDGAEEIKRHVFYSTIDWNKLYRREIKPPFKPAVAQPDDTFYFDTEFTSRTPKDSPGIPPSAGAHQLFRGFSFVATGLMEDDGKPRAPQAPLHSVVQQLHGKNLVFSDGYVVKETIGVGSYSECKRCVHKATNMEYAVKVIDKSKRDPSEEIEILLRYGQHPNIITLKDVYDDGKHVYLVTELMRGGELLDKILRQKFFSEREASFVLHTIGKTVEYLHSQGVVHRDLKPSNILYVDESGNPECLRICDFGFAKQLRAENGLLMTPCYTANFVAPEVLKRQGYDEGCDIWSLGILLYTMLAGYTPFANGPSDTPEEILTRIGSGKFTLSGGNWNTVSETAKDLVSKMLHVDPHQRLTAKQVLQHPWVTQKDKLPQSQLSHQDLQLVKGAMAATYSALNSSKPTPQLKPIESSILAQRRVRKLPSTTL

Insulin receptor (Homo sapiens), sequence (P06213 28-758 limits assumed): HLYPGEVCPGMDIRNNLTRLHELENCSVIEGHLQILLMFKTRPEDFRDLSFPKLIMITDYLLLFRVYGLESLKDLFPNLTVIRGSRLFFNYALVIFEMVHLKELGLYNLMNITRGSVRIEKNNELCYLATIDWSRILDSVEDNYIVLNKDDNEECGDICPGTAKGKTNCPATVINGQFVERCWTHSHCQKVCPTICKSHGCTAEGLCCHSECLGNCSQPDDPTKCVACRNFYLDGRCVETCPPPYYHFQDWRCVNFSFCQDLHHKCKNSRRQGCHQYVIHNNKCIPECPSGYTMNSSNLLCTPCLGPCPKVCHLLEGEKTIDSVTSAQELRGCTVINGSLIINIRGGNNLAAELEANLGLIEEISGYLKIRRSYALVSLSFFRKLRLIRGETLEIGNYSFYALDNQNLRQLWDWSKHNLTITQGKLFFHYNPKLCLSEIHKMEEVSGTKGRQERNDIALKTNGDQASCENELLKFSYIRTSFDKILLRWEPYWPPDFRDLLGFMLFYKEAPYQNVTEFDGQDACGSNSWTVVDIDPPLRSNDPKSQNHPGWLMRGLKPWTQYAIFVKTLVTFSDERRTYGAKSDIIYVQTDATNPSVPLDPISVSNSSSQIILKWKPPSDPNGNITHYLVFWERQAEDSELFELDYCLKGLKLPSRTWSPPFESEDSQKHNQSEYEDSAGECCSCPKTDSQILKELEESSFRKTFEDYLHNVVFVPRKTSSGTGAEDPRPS
Insulin receptor (Homo sapiens), sequence (P06213 763-1382 limits assumed): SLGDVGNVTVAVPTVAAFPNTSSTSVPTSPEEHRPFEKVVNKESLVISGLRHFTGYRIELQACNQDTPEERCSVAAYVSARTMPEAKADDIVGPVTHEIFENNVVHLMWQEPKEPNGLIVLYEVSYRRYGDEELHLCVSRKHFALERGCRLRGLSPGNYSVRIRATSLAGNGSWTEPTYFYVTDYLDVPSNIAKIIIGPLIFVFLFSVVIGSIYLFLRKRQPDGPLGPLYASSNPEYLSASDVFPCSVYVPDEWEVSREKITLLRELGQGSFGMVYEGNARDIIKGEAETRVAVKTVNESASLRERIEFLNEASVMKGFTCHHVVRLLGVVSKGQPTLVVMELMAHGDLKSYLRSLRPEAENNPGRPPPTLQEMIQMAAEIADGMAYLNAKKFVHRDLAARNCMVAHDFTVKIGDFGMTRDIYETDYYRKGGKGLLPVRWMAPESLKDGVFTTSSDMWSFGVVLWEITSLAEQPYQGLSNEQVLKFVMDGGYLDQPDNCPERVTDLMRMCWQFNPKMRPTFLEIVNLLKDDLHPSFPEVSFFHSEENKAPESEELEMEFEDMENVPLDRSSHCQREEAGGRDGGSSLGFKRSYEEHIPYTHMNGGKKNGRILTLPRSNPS
Phosphatidylinositol 4,5-bisphosphate 3-kinase catalytic subunit alpha isoform (Homo sapiens), P42336 [E545K], sequence (P42336 whole entry E545K, canonical isoform): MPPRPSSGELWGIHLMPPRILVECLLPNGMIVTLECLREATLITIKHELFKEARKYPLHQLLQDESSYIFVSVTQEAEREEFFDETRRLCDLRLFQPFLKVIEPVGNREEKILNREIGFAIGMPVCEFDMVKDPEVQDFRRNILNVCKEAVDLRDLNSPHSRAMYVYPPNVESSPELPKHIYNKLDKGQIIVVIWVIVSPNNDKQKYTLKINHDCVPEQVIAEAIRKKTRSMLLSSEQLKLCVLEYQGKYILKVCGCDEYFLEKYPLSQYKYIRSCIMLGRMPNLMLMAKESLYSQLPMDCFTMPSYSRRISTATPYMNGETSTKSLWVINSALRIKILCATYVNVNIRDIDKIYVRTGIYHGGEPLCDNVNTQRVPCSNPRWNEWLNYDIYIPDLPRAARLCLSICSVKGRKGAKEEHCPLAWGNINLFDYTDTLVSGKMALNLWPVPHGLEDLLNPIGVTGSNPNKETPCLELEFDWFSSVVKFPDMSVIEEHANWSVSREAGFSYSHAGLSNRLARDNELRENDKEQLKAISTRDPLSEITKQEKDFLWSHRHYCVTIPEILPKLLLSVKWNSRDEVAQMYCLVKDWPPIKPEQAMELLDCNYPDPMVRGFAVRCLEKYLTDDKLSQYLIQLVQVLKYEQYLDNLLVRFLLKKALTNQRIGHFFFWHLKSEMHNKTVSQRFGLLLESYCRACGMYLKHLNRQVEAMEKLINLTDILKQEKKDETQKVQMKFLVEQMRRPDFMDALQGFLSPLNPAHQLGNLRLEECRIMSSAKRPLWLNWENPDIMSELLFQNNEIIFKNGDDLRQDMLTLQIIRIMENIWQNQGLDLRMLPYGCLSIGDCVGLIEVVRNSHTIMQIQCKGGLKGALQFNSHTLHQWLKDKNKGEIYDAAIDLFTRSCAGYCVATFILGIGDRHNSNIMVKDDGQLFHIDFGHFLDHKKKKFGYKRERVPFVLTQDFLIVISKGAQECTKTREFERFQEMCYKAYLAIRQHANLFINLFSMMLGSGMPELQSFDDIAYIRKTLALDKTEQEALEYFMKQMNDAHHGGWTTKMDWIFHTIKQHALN
Mitogen-activated protein kinase 1 (Homo sapiens), sequence (P28482 whole entry): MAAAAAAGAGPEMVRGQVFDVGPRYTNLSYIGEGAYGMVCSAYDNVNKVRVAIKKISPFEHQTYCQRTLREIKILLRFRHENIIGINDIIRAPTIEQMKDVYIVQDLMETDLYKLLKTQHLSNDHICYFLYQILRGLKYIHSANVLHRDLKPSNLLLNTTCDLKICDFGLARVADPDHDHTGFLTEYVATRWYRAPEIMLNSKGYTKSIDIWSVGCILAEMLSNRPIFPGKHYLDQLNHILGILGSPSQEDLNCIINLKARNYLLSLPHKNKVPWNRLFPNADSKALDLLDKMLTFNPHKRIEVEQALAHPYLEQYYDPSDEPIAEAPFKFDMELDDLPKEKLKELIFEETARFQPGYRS
Glycogen synthase kinase-3 beta (Homo sapiens), sequence (P49841 whole entry, looked up): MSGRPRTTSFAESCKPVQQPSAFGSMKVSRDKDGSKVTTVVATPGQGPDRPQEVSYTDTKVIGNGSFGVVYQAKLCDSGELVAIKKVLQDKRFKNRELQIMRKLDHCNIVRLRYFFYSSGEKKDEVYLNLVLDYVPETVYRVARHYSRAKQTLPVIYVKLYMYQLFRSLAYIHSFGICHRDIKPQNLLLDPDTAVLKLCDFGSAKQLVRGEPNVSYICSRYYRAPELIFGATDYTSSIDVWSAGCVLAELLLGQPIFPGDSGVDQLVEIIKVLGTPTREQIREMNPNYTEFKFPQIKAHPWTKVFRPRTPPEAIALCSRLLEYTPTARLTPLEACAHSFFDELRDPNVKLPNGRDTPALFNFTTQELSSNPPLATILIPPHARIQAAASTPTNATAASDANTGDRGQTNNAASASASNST

COc1cc2nc(C)nc(N[C@H](C)c3cccc(-c4cn[nH]c4)c3)c2cc1OC gave an Activity [1] of 98%, an Activity [2] of 90% and an Activity [3] of 61%. It also gave an Activity [4] of 80%, an Activity [5] of 100% and an Activity [6] of 54%. The Activity [7] was 88% and the Activity [8] was 95%.

COc1cc2ncnc(N[C@H](C)c3cccc4ccccc34)c2cc1OC was tested, and the Activity [1] was 94%, the Activity [2] was 96% and the Activity [3] was 100%. It also gave an Activity [4] of 82%, an Activity [5] of 100% and an Activity [6] of 98%. For the same compound, the Activity [7] was 83% and the Activity [8] was 76%.
